In patent publication US8716252B2, “(Methylsulfonyl) ethyl benzene isoindoline derivatives and their pharmaceutical uses” (Celgene Corporation, priority 2009, dated 2014):

melting point: 135 to 137 °C
SMILES: CCOc1cc([C@@H](CS(C)(=O)=O)N2Cc3cccc(N)c3C2=O)ccc1OC [Example 5.5, 7-amino-2-[(1S)-1-(3-ethoxy-4-methoxy-phenyl)-2-methanesulfonyl-ethyl]-2,3-dihydro-isoindol-1-one]
